# Source: paper PMC12032302, “A20 attenuates oxidized self-DNA-mediated inflammation in acute kidney injury” (Signal Transduction and Targeted Therapy, 2025)
# “Also recorded” adds a separate entry of the source. Residues, ends and D or L forms follow the SMILES beside them.
# Columns and labels:
# [1] = test system: recombinant human NEK7 protein; experiment: BLI analysis of recombinant human NEK7 and P-II; details: Supplementary Fig. 4e, peptide immobilized on AR2G biosensors 400 μg/ml, recombinant human NEK7 39.0625 to 1250 nM, 1:1 binding model
# Procedure: Bio-Layer Interferometry (BLI) analysis
# The peptide (Bootech BioScience &Technology) was immobilized separately on Octet® AR2G Biosensors (Sartorius, Lot#2308017311) at a concentration of 400 μg/ml for 500 s. Association and dissociation curves were obtained through the addition of a dilution series of recombinant human NEK7 protein (SinoBiological, CAT#11534-H20B) (39.0625 to 1250 nM) for 120 s followed by dissociation for 120 s. Interference patterns for association or dissociation were measured in real-time to generate a response profile on the Octet® System Octet 96 Red instrument (Sartorius). A 1:1 binding model was used to evaluate the Kinetic parameter.
# [2] = test system: HA-NEK7 Tri-MUT (K130, L132 and K140); experiment: biotin-P-II immunoprecipitation of HA-NEK7 Tri-MUT; type: binding, mouse; details: co-IP with biotin-labeled P-II, HEK293T lysates, overnight 4 °C, immunoblot; Fig. 7c
# Procedure: For biotin mediated immunoprecipitation, plasmids of HA-NEK7 (WT, K130A, L132R, K140A and Tri-MUT) were transfected into HEK293T cells for 2 days. Then, cells were lysed in MLB with inhibitor cocktail for 10 min at 4 °C. Cell lysates were collected and centrifuged at 12,000 rpm for 15 min at 4 °C and the supernatant was incubated with biotin conjunction peptide overnight at 4 °C. On the next day, streptavidin magnetic beads(Invitrogen, Lot#91221939) were added and incubated for 1 h. The immunocoprecipitated protein was then subjected to washing, heating, and western blot analysis.
# Mouse HA-NEK7, FlAG-A20, and NLRP3 cDNA were amplified by employing standard PCR techniques from a mouse cDNA library. Subsequently, diverse cDNAs were inserted into mammalian expression vectors pcDNA3.1(+), pRK5, or pCMV6 with 3×Flag or 3×HA tags. For transient transfections, Lipofectamine 3000 was utilized according to the manufacturer’s instructions.
# BMDMs = experiment: ox-dsDNA-induced pyroptosis in BMDMs (GSDMD cleavage, IL-1β, IL-18, LDH release); type: cell-based, mouse; details: ox-dsDNA90, 12 h pretreated P-II (0, 5, 10, 20 μM), n = 3, Supplementary Fig. 4f-i
# Procedure: Primary bone marrow-derived macrophages (BMDMs) were isolated from 6- to 8-week-old C57BL/6J male mice. The mice were sacrificed and soaked in 75% alcohol for 1–2 min. The femurs and tibias were removed and immersed in PBS containing 500 U/mL penicillin and […] streptomycin for 3 min. The marrow cavities were repeatedly rinsed with DMEM using a sterile 1 mL syringe. The cell suspension was collected and centrifuged at 300 × g for 10 min, and the supernatant was discarded. The cell pellet was resuspended in 5 mL red cell lysis buffer (Bio Sharp, Cat#BL503A) on ice for 5 min, followed by centrifugation, and the supernatant was removed. The cells were then resuspended in DMEM complete culture medium supplemented with 10% FBS and 30% L929 cell-conditioned medium as an induction factor.[51] Half of the medium was changed every other day for 5–7 days. The suspended cells were removed, and the adherent BMDMs were digested with trypsin and plated on a six-well plate at a density of 1 × 10^6 cells/well. […]
# To measure the levels of CXCL10, IFN-β, IL-1β, and IL-18, mouse serum or cell culture medium was collected and measured by ELISA (NeoBioscience, China) according to the manufacturer’s instructions.
# To measure the release of LDH, cell culture medium was collected and measured by CytoTox96@Non-Radio cytotoxicity Assay (Promega, REF#G1781) according to the manufacturer’s instructions.
smiles,measurement,setting,value
CSCC[C@H](NC(=O)[C@H](Cc1ccc(O)cc1)NC(=O)[C@H](CCC(N)=O)NC(=O)[C@H](CS)NC(=O)[C@H](C)NC(=O)[C@H](C)NC(=O)[C@H](Cc1c[nH]cn1)NC(=O)[C@H](CCSC)NC(=O)[C@H](CC(C)C)NC(=O)[C@H](CS)NC(=O)[C@H](CC(N)=O)NC(=O)CNC(=O)[C@H](CC(=O)O)NC(=O)CNC(=O)[C@H](CC(N)=O)NC(=O)[C@@H](NC(=O)[C@H](CCCCN)NC(=O)[C@H](CC(C)C)NC(=O)[C@H](C)NC(=O)[C@@H](NC(=O)[C@H](CC(C)C)NC(=O)[C@@H](N)CCCCN)C(C)C)[C@@H](C)O)C(=O)N[C@@H](Cc1c[nH]c2ccccc12)C(=O)NCC(=O)N[C@H](C(=O)N[C@@H](CCC(N)=O)C(=O)N[C@@H](CC(=O)O)C(=O)N[C@H](C(=O)N[C@@H](CC(=O)O)C(=O)O)[C@@H](C)O)C(C)C [P-II] (H-KLVALKTNGDGNCLMHAACQYMWGVQDTD-OH; N-terminus and C-terminus assumed),affinity for NEK7 (in words),[1],high affinity to NEK7 protein
same,"binding of NEK7 and P-II, effect of simultaneous mutation of three residues",[2],significantly attenuate the binding of NEK7 and P-II
same,inhibition of ox-DNA-induced pyroptosis,BMDMs,significantly alleviates ox-dsDNA-induced pyroptosis; also recorded: inhibiting ox-self-DNA-induced pyroptosis
